Columns and labels:
[1] = molecular target: Proto-oncogene tyrosine-protein kinase Src (Homo sapiens, UniProt P12931); test: Inhibition of binding to Src SH2 domain
Oryctolagus cuniculus = species: Oryctolagus cuniculus; test: Ability to inhibit osteoclast mediated resorption of dentine in rabbit; type: functional

Chain of Proto-oncogene tyrosine-protein kinase Src (P12931 2-536 limits assumed): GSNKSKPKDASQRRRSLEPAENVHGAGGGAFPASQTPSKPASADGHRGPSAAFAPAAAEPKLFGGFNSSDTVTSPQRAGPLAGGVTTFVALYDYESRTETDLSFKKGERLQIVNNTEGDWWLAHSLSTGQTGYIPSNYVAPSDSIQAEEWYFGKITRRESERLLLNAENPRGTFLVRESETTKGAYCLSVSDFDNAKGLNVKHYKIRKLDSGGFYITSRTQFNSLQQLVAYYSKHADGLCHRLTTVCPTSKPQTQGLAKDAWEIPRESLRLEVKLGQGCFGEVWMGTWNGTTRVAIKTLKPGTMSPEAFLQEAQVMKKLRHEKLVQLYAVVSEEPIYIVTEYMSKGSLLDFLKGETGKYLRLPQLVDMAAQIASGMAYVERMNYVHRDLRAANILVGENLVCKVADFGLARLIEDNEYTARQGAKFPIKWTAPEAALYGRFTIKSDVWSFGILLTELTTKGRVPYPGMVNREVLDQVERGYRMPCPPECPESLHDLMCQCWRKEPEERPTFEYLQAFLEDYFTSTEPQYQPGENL

Row | Compound | IC50 [1] [nM] | IC50 (Oryctolagus cuniculus) [nM]
1 | CC(=O)N[C@@H](Cc1ccc(CP(=O)(O)O)cc1)C(=O)N[C@@H](C)c1ccc(OCC2CCCCC2)c(C(N)=O)c1 | 7900 | –
2 | CC(=O)N[C@@H](Cc1ccc(C(P(=O)(O)O)P(=O)(O)O)cc1)C(=O)N[C@@H](C)c1ccc(OCC2CCCCC2)c(C(N)=O)c1 | 350 | 2000

Source: ChEMBL document CHEMBL1134353, “X-Ray structure of citrate bound to Src SH2 leads to a high-affinity, bone-targeted Src SH2 inhibitor” (J Med Chem, 2001)
